Earlier results, collected in patent US20100216719A1, “Soluble Fiber Combinations for Weight Control and Improving Parameters of Cardiovascular Health” (MANNATECH, INCORPORATED, priority 2005, published 2010).

Assays:
[1] = subjects supplemented with 3.8 grams per day for 28 days
[2] = test animals

Substance | reduction in ApoB [1] [%] | reduction in LDL cholesterol [1] [%] | reduction in fasting glucose levels [1] [%] | reduction in plasma cholesterol [1] [%] | reduction in total cholesterol/HDL cholesterol ratio [1] [%] | effect on cholesterol [2] | effect on triglycerides [2]
Konjac glucomannan | 12.9 | 20.7 | 23.2 | 11.1 | 15.6 |  | 
guar gum |  |  |  |  |  | decreased only cholesterol | 
xanthan gum |  |  |  |  |  | significantly reduced | significantly reduced
